This note sets out measurements from US20070298994A1, “Use of 3-Mercapto-3-Methyl-Hexan-1-Ol for Use as Malodour Standard” (SYMRISE GMBH & CO. KG, priority 2004, published 2007).

The test in a line: Raw material test against sweat odour (masking of malodour standard, assessor panel). As to conditions: for Increase In intensity / Odour reduction value: Table 1, 15 h at approx. 20° C., scale 1 to 9, malodour standard mixture = 6, mean of at least 8 assessors.
[1] abbreviates: 1 μl fragrance + 5 μl 3-mercapto-3-methyl-hexan-1-ol (0.1% in DPG) in 7 l air.
Setting [2] is: Table 4, tests with the mixtures (Example 2), according to the raw material test method.
Setting [3] is: Table 2 (raw materials without adequate malodour-reducing action), 1 μl fragrance + 5 μl 3-mercapto-3-methyl-hexan-1-ol (0.1% in DPG) in 7 l air, 15 h, scale 1 to 9, standard = 6.
[4] abbreviates: Table 3 (adequate malodour-reducing action but significant increase in intensity), 1 μl fragrance + 5 μl 3-mercapto-3-methyl-hexan-1-ol (0.1% in DPG) in 7 l air, 15 h, scale 1 to 9, standard = 6.

Read-outs that look alike come from different tables or passages of the source.

Consider `CC(C)CCOC(=O)c1ccccc1O` [SALICYLIC ACID 3-METHYLBUTYL ESTER], for which, under setting [1], the “Increase In intensity” value amounted to 1.0 and the Odour reduction value is listed as 3.3.
On the same counts, the results for `CC(C)=CCCC(C)CCOCC=O` (stereo not drawn) are 1.5 and 3.8.
On the same counts, the results for `CCCCCCCCCC/C=C\C#N` [(Z)-2-TRIDECENE NITRILE] are 1.6 and 3.8.
On the same counts, the results for `COC1CCCCCCCCCCC1` [CYCLODODECYL METHYL ETHER] are 0.7 and 3.1.
Take `COC(=O)c1ccc(O)c(C)c1O` [2,4-DIHYDROXY-3-METHYLBENZOIC ACID METHYL ESTER]: under setting [1], the “Increase In intensity” value is listed as 0.0 and the Odour reduction value was found to be 3.0.
On the same counts, the results for `CC(C)=CCCC(C)CC#N` (stereo not drawn) [3,7-DIMETHYL-6-OCTENE NITRILE] are 0.5 and 4.5.
In the case of `CCOC(=O)c1ccccc1C(=O)OCC` [DEP, diethyl phthalate, reference compound], under setting [2], the Increase in intensity is −0.1 and the Malodour reduction value is 0.0. In addition, under “solvents”, the “effect on the intensity of the bad odour” value was “no effect” and the “effect on the total intensity” value is reported as “no effect”.
In the case of `COc1ccc(C=O)cc1` [4-METHOXYBENZALDEHYDE], under setting [1], the “Increase In intensity” value came out at 1.0 and the Odour reduction value came to 4.7.
Taken in the same sequence, the figures for `CC(C)=CCC(C)(C)C(=O)C(C)C` were 1.0 and 3.3.
In the case of `C=CCCCCCCCCC=O` [10-UNDECENAL], under setting [1], the “Increase In intensity” value amounted to 1.6 and the Odour reduction value was 3.3.
As for `CCCCCC1COCCC1OC(C)=O` (stereo not drawn) [TETRAHYDRO-3-PENTYL-PYRAN-4-OL ACETATE], under setting [1], the “Increase In intensity” value was determined as 1.5 and the Odour reduction value was 4.5. Under setting [3], the Increase in intensity was 1.0 and the Malodour reduction value was found to be 2.0.
Take `C=CCOC(=O)COC1CCCCC1` [(CYCLOHEXYLOXY)-ACETIC ACID-2-PROPENYL ESTER]: under setting [1], the “Increase In intensity” value is on record as −0.5 and the Odour reduction value turned out to be 4.3.
The compound `CC1CC(C)(c2ccccc2)OC(C)O1` (stereo not drawn) [reference compound] registered an Increase in intensity of −0.7 and a Malodour reduction value of 1.1.
Take `Cc1cccc(CC(C)(C)C(C)O)c1` (stereo not drawn) [ALPHA.BETA.BETA.3-TETRAMETHYL-BENZENE PROPANOL]: under setting [1], the “Increase In intensity” value came out at 0.2 and the Odour reduction value is given as 4.6.
Taken in the same sequence, the figures for `CC(=O)OCC(C)CC(C)(C)c1ccccc1` (stereo not drawn) [ACETIC ACID-2,4-DIMETHYL-4-PHENYLPENTYL ESTER] were 1.6 and 3.4.
Taken in the same sequence, the figures for `CCC(O)CC[C@H]1[C@@H](C)CCCC1(C)C` (relative stereo) were 0.8 and 3.1.
Taken in the same sequence, the figures for `CC(=O)O[C@H]1CC[C@H](C(C)(C)C)CC1` [ACETIC-TRANS-4-TERT.-BUTYL CYCLOHEXYL ESTER] were 0.2 and 5.1.
Take `CC=CC(=O)C1C(C)=CCCC1(C)C` (stereo in doubt) [ALPHA-DAMASCONE]: under setting [1], the “Increase In intensity” value is −2.0 and the Odour reduction value is on record as 4.1.
Take `CC(C)c1ccc(CC=O)cc1` [4-(1-METHYLETHYL)-PHENYL ACETALDEHYDE]: under setting [1], the “Increase In intensity” value was found to be 1.7 and the Odour reduction value turned out to be 3.8.
On the same counts, the results for `COC(=O)c1c(C)cc(O)c(C)c1O` [2,4-DIHYDROXY-3.6-DIMETHYLBENZOIC ACID METHYL ESTER] are 1.3 and 3.8.
As to `C=CCOC(=O)CCCCC` [ALLYL CAPRONATE], under setting [1], the “Increase In intensity” value is 1.0 and the Odour reduction value turned out to be 3.0.
Regarding `CCCCCCO` [1-HEXANOL], under setting [1], the “Increase In intensity” value was 1.6 and the Odour reduction value was 3.6.
For `CCOC(=O)C1=C(C)C=CCC1(C)C` [2,6,6-TRIMETHYL-1,3-CYCLOHEXADIENE CARBOXYLIC ACID ETHYL ESTER], under setting [1], the “Increase In intensity” value was −2.8 and the Odour reduction value is listed as 3.0.
On the same counts, the results for `CC(=O)C(C)=C(C)C(C)C(C)(C)C` (stereo not drawn) are 1.6 and 3.2.
For the compound `CCCCCCCC1CCCC1=O` (stereo not drawn) [2-HEPTYL-CYCLOPENTANONE], under setting [1], the “Increase In intensity” value is 1.3 and the Odour reduction value was 4.5.
For `CC(=O)CC(C)(C)c1ccccc1` [4-METHYL-4-PHENYL-2-PENTANONE], under setting [1], the “Increase In intensity” value worked out at 1.4 and the Odour reduction value came out at 4.2.
Taken in the same sequence, the figures for `CC(CO)CCCc1ccccc1` (stereo not drawn) [2-METHYL-5-PHENYL PENTANOL] were −0.5 and 5.1.
For `CCCCCCCC=O` [OCTANAL, reference compound], under setting [3], the Increase in intensity came to 0.9 and the Malodour reduction value was determined as 2.4.
With `COC1C=C2C(C)(C)C3CCC2(C3)C(C)(C)C1` (stereo not drawn), under setting [1], the “Increase In intensity” value is on record as 0.5 and the Odour reduction value came out at 4.3.
On to `CCCCCCCCCCCC#N` [UNDECYL CYANIDE], for which, under setting [1], the “Increase In intensity” value stood at 1.6 and the Odour reduction value is 3.3.
On the same counts, the results for `C=CC(C)(O)CCC=C(C)CC` (stereo not drawn) are 1.0 and 3.1.
Consider `C/C=C/C(=O)C1CCC(C)(C)C=C1C` (stereo not drawn), for which, under setting [1], the “Increase In intensity” value is given as 1.0 and the Odour reduction value was 5.0.
On the same counts, the results for `CC1=CCC(C(C)CC=O)CC1` (stereo not drawn) are 0.9 and 3.9.
For the compound `CC(C)COC(=O)C=Cc1ccccc1` [ISOBUTYL CINNAMATE], under setting [1], the “Increase In intensity” value worked out at 0.8 and the Odour reduction value is on record as 3.1.
As to `CC(=O)OC(C)(C)C1CC=C(C)CC1` (stereo not drawn) [ACETIC ACID-ALPHA-TERPINYL ESTER], under setting [1], the “Increase In intensity” value is listed as −0.3 and the Odour reduction value is on record as 4.0.
On the same counts, the results for `CC1COCc2cc3c(cc21)C(C)(C)C(C)C3(C)C` (stereo not drawn) are −2.3 and 4.3.
Regarding `CCC(C)(O)CCCC(C)C` (stereo not drawn) [TETRAHYDROLINALOOL, reference compound], under setting [4], the Increase in intensity is reported as 2.3 and the Malodour-reduction value amounted to 3.0.
With `CCCCCCCCCCCC=O` [DODECANAL, reference compound], under setting [3], the Increase in intensity is recorded as 2.0 and the Malodour reduction value is on record as 2.0.
In the case of `CC(CC#N)CCc1ccccc1` (stereo not drawn) [2-METHYL-4-PHENYL BUTYL CYANIDE], under setting [1], the “Increase In intensity” value was 0.2 and the Odour reduction value came to 5.3.
On the same counts, the results for `CC(C)=CCC(C)(C)C1OCC=CCO1` are 0.0 and 3.7.
On the same counts, the results for `O=Cc1ccc2c(c1)OCO2` [3,4-METHYLENDIOXYBENZALDEHYDE] are −1.2 and 3.7.
Taken in the same sequence, the figures for `CC(C)=CCCC(C)=CCCC(C)C=O` (stereo not drawn) were 0.2 and 3.8.
Consider `C=CC(C)(O)CCC=C(C)C` (stereo not drawn) [LINALOOL], for which, under setting [1], the “Increase In intensity” value came to 1.0 and the Odour reduction value came out at 5.0.
